We go through 4 molecules from PMC9077138, “An investigation on 3-acetyl-7-methoxy-coumarin Schiff bases and their Ru(II) metallates with potent antiproliferative activity and enhanced LDH and NO release” (RSC Advances, 2018).

Molecules are shown by their SMILES.

One test relates to CT-DNA. Put plainly: EB-DNA competitive binding (fluorescence quenching). Further details: species or system calf. The settings on record: compounds 10–100 μM; for quenching of the emission band of DNA-bound EB: % of the initial fluorescence intensity; for Quenching constant KSV: Stern–Volmer, DNA-EB 10 μM. Here is the method:
The competitive binding experiments were carried out on the EB–CT-DNA system by varying the concentrations of the ligands and complexes to get further information about the binding mode of compounds with DNA. In our studies, it was noted that upon concomitant addition of the compounds to the EB-DNA system, emission intensity decreased progressively, indicative of competition between EB and compounds towards CT-DNA in binding/chelation (Fig. S26 ^†). The reduction of the fluorescence emission intensity gives criteria to investigate the DNA binding propensity of the compounds and stacking interaction (intercalation) between the adjacent DNA base pairs.[45] […] This provides a direct evidence for the intercalative binding mode of the compounds with DNA.
Further quantitative measurement of the magnitude of interaction was ascertained by the classical Stern–Volmer equation. Quenching constant KSV is used to evaluate the quenching efficiency and is obtained from the slope of Io/I versus [Q] […] Further, the calculated KSV values of the compounds are significant when compared to the reported values.[30,31]
Supplementary Information
All the experiments involving CT-DNA binding were carried out in deionised water with tris(hydroxymethyl)-aminomethane (Tris, 5 mM) and sodium chloride (50 mM) and adjusted to pH 7.2 with hydrochloric acid at room temperature. The concentration of CT-DNA was determined by UV absorbance at 260 nm. Solutions of CT-DNA in Tris-HCl buffer gave a ratio of UV absorbance at 260 and 280 nm, A260/A280, of approximately 1.9, […]
The molar absorption coefficient, […]
[DNA]/[εa-εf]) = [DNA]/[ε b-εf]+1/Kb[εb-εf] (S1) […]
EB-DNA. The change in the fluorescence intensity was recorded. Before measurements, the system was shaken well and incubated at room temperature for 5 min. […]

The target in a further test is T1, BSA (Bos taurus, UniProt P02769).
T1 construct: purchased HiMedia (Mumbai, India)
T1 sequence (P02769 25-607): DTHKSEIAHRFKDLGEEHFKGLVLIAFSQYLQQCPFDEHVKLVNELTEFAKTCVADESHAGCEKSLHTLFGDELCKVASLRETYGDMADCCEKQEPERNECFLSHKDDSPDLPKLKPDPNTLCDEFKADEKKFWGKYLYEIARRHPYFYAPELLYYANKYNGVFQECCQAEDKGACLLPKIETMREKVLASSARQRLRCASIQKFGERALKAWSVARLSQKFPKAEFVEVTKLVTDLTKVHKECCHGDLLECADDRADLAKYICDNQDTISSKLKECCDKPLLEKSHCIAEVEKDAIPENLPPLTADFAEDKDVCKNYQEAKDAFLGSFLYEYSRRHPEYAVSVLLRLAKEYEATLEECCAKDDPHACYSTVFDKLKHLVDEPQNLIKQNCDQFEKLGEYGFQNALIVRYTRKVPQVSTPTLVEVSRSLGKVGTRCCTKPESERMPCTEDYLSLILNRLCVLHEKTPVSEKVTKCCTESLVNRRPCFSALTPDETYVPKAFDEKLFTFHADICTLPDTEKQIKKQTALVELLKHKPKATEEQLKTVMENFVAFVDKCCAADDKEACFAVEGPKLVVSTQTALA
As to the kind of experiment: Three-dimensional fluorescence spectra of BSA. The settings on record: BSA 10 μM + compound 10 μM, pH 7.4, 298 K. The format is binding, bovine. The source says: (§1) To investigate the micro environmental changes in BSA/HSA during interaction with the compounds, three dimensional fluorescence spectroscopic studies have been performed. The changes observed in 3D emission spectra and contour lines of serum albumins in the absence and presence of ligands and complexes are given in Fig. 15, 16, S34 and S35 in the ESI ^† and their corresponding characteristic parameters are provided in Table 5. The emission spectra of serum albumins such as BSA and HSA have shown three characteristic peaks – peaks A and C corresponds to first and second order Rayleigh scattering and peak B corresponds to the spectral characteristics of Trp and Tyr residues of proteins.[57] The emission intensity of Rayleigh first order scattering peak increased upon adding the compounds to serum albumins. […] The fluorescence intensity of peak ‘B’ corresponding to the tryptophan and tyrosine residues decreased with slight blue shift. From the results, it is inferred that the molecular microenvironment and conformational changes of protein occurred after interaction with the complexes and ligands.
Fig. 15 Three-dimensional fluorescence spectra of BSA in the absence and presence of ruthenium(II) complexes 1–4 (pH 7.4, 298 K, [BSA] = 10 μM, [complex] = 10 μM).
Fig. S34. Three-dimensional fluorescence spectra of BSA in the absence and presence of
(§2) ligands H 2L1-4 (pH 7.4, 298 K, [HSA] =10 µM, [Ligand] =10 µM) […]

The target in the next test is T2, HSA (Homo sapiens, UniProt P02768).
T2 construct: purchased HiMedia (Mumbai, India)
T2 sequence (P02768 25-609): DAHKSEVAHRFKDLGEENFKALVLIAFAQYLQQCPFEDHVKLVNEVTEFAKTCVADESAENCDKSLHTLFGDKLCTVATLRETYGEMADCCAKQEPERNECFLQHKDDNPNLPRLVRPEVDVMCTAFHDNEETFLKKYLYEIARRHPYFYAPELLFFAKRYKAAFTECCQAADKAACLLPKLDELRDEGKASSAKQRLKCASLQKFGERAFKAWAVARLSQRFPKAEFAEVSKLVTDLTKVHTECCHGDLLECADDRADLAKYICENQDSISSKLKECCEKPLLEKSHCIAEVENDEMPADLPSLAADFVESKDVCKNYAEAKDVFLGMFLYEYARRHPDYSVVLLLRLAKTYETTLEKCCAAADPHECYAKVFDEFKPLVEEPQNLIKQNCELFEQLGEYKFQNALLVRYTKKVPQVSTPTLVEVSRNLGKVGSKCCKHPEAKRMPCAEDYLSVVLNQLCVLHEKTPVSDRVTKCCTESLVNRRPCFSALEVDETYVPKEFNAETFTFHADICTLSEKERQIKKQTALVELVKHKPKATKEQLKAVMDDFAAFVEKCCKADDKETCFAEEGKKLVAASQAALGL
As to the kind of experiment: Three-dimensional fluorescence spectra of HSA. The format is binding. Particulars: HSA 10 μM + compound 10 μM, pH 7.4, 298 K.
Excerpt: as §1
Fig. 16 Three-dimensional fluorescence spectra of HSA in the absence and presence of ruthenium(II) complexes 1–4 (pH 7.4, 298 K, [HSA] = 10 μM, [complex] = 10 μM).
Fig. S35. Three-dimensional fluorescence spectra of HSA in the absence and presence of
as §2

A short description of test [1]: DPPH radical scavenging assay. The settings on record: in methanol. The procedure:
(§3) It has been reported that free radical species such as reactive oxygen species (ROS), are involved in the pathogenesis of various diseases through effects on DNA directly and by acting as a tumour promoter.[59,60] The DPPH free radical scavenging activity of the ligands and complexes were studied and quantitatively antioxidant properties were determined by using phosphomolybdate method. We knew that the inhibitory effects of the tested compounds on DPPH radical are concentration dependent and the suppression ratio increases with increasing sample concentrations (Fig. S36 ^†). […] In the phosphomolybdenum assay, the antioxidant activity is expressed as the number of equivalents of ascorbic acid (Table 6). The total antioxidant activity of the compounds is in the following order complex 3 > complex 2 > complex 1 > complex 4 > H2L^3 > H2L^2 > H2L^1 > H2L^4 > ascorbic acid > [RuHClCO(PPh3)3]. The results concluded that the metal complexes are better antioxidants than their parent ligands which may be due to the chelation of the ligands to metal ion.[35] The radical scavenging ability of the new complexes is greater than that of few other reported ruthenium complexes, containing Schiff base ligands.[9]
(§4) The DPPH radical scavenging activity of the compounds have been carried out according to the reported method.[74] In this study, various concentrations of the experimental standard ascorbic acid, [RuHCl(CO)(PPh3)3], ligands (20–100 μM) and complexes (2–10 μM) in methanol were taken. Total antioxidant activity of the compounds was determined by the phosphomolybdate method.[75]
For orientation: DPPH is a stable violet radical that fades when it is reduced.

Test [2] can be described thus: Total antioxidant capacity, phosphomolybdate method. The procedure:
as §3, §4

The subject of another test is A549 cells. Put plainly: Lactate dehydrogenase release. In kind it is cell-based, human. Particulars: A549, IC50 concentrations, 48 h. Here is the method:
(§5) LDH is a stable cytoplasmic enzyme that is released into the culture medium following loss of membrane integrity and serves as a general mean to assess cytotoxicity resulting from chemical compounds or environmental toxic factors.[68] In the present study, LDH leakage into the culture medium of the compounds treated A549 and MCF-7 cells was analyzed. […] The results confirmed the cytotoxic effect of the ligands and complexes on lung and breast cancer cell lines. The compounds could induce LDH leakage as high as that of cisplatin. […] Error bars represent the standard mean error (n = 6).

The next test has as its system MCF-7 cells. Put plainly: Lactate dehydrogenase release. The format is cell-based, human. Particulars: MCF-7, IC50 concentrations, 48 h. The procedure: as §5

As to `COc1ccc2[c]3c(c(=O)oc2c1)C(C)=[N+]1N=C(Nc2ccccc2)[S][Ru-4]31([C]#[O+])([P+](c1ccccc1)(c1ccccc1)c1ccccc1)[P+](c1ccccc1)(c1ccccc1)c1ccccc1` [Complex 4, [Ru(7MAC-ptsc)(CO)(PPh3)2]], in the test on CT-DNA, the “quenching of the emission band of DNA-bound EB” value (“quenching … of DNA-bound EB” below) is reported as 28.92% and the “Quenching constant KSV” value is on record as 4.00 ± 0.002 × 10^3 M^−1. In addition, at BSA, the “Fluorescence peaks Intensity (F)” value is given as 368.76, the “Fluorescence peaks Peak position λex/λem” value is on record as 280/340, the “Fluorescence peaks Stokes Δλ” value was determined as 60 nm and the “Rayleigh scattering peaks Intensity (F)” value is 741.59. On HSA, the “Fluorescence peaks Intensity (F)” value is listed as 276.12, the “Fluorescence peaks Peak position λex/λem” value was 280/332, the “Fluorescence peaks Stokes Δλ” value was 52 nm and the “Rayleigh scattering peaks Intensity (F)” value is recorded as 830.46. For the same molecule, half-maximal inhibition in test [1] (IC50) was put at 7.39 ± 0.14 µM. In test [2], the Total antioxidant capacity is reported as 54.99 ± 0.65 μg ascorbic acid equivalents/ml.

With `CNC1=N[N+]2=C(C)c3[c](c4ccc(OC)cc4oc3=O)[Ru-4]2([C]#[O+])([P+](c2ccccc2)(c2ccccc2)c2ccccc2)([P+](c2ccccc2)(c2ccccc2)c2ccccc2)[S]1` [Complex 2, [Ru(7MAC-mtsc)(CO)(PPh3)2]], in the test with CT-DNA, the “quenching … of DNA-bound EB” value came out at 36.67% and the “Quenching constant KSV” value is 5.52 ± 0.009 × 10^3 M^−1. At BSA, the “Fluorescence peaks Intensity (F)” value is given as 372.76, the “Fluorescence peaks Peak position λex/λem” value is 280/339, the “Fluorescence peaks Stokes Δλ” value stood at 59 nm and the “Rayleigh scattering peaks Intensity (F)” value is recorded as 837.83. At HSA, the “Fluorescence peaks Intensity (F)” value is on record as 269.53, the “Fluorescence peaks Peak position λex/λem” value is reported as 280/331, the “Fluorescence peaks Stokes Δλ” value is 51 nm and the “Rayleigh scattering peaks Intensity (F)” value is 790.59. For the same molecule, in test [1], the IC50 (in general, the midpoint of a concentration-inhibition curve) was determined as 6.75 ± 0.18 µM. In test [2], the Total antioxidant capacity is 58.27 ± 0.46 μg ascorbic acid equivalents/ml.

For `COc1ccc2[c]3c(c(=O)oc2c1)C(C)=[N+]1N=C(N)[S][Ru-4]31([C]#[O+])([P+](c1ccccc1)(c1ccccc1)c1ccccc1)[P+](c1ccccc1)(c1ccccc1)c1ccccc1` [Complex 1, [Ru(7MAC-tsc)(CO)(PPh3)2]], in the test on CT-DNA, the “quenching … of DNA-bound EB” value amounted to 27.83% and the “Quenching constant KSV” value is given as 4.16 ± 0.002 × 10^3 M^−1. At BSA, the “Fluorescence peaks Intensity (F)” value worked out at 395.56, the “Fluorescence peaks Peak position λex/λem” value was 280/338, the “Fluorescence peaks Stokes Δλ” value is recorded as 58 nm and the “Rayleigh scattering peaks Intensity (F)” value was 867.32. At HSA, the “Fluorescence peaks Intensity (F)” value is reported as 268.14, the “Fluorescence peaks Peak position λex/λem” value was 280/335, the “Fluorescence peaks Stokes Δλ” value was found to be 55 nm and the “Rayleigh scattering peaks Intensity (F)” value turned out to be 652.04. In addition, in test [1], the IC50 was 7.13 ± 0.23 µM. The Total antioxidant capacity in test [2] is 54.13 ± 0.28 μg ascorbic acid equivalents/ml.

In the case of `CCNC1=N[N+]2=C(C)c3[c](c4ccc(OC)cc4oc3=O)[Ru-4]2([C]#[O+])([P+](c2ccccc2)(c2ccccc2)c2ccccc2)([P+](c2ccccc2)(c2ccccc2)c2ccccc2)[S]1` [Complex 3, [Ru(7MAC-etsc)(CO)(PPh3)2]], in the test on CT-DNA, the “quenching … of DNA-bound EB” value is recorded as 36.99% and the “Quenching constant KSV” value was 5.62 ± 0.003 × 10^3 M^−1. Further, on BSA, the “Fluorescence peaks Intensity (F)” value was 304.43, the “Fluorescence peaks Peak position λex/λem” value is listed as 280/339, the “Fluorescence peaks Stokes Δλ” value stood at 59 nm and the “Rayleigh scattering peaks Intensity (F)” value worked out at 958.23. Besides, on HSA, the “Fluorescence peaks Intensity (F)” value is recorded as 266.21, the “Fluorescence peaks Peak position λex/λem” value is 280/337, the “Fluorescence peaks Stokes Δλ” value worked out at 57 nm and the “Rayleigh scattering peaks Intensity (F)” value came to 612.58. For the same molecule, in test [1], half-maximal inhibition (IC50) was put at 5.28 ± 0.24 µM. Besides, the Total antioxidant capacity in test [2] is 62.71 ± 0.37 μg ascorbic acid equivalents/ml. In the test on A549 cells, the “LDH release into the culture medium” value is “more potent in inducing LDH leakage into the culture than the rest”. Besides, the “LDH release into the culture medium” value in the test with MCF-7 cells is on record as “more potent in inducing LDH leakage into the culture than the rest”.
